US20240218079A1, “PLASMA KALLIKREIN ANTIBODIES AND USES THEREOF” (Astria Therapeutics, Inc., priority 2021, published 2024)
Where a name gives a salt, the structure may show the parent alone. Read-outs that look alike come from different tables or passages of the source. Peptide text beside a SMILES is read from it.

Key:
Assay type in all cases: biochemical
trypsin, human pancrease = assay: Trypsin inhibition assay; conditions: 0.25 nM trypsin, PFR-AMC, 2 hours
Description: Fluorescence intensity was measured every 5 minutes. Gabexate mesylate was used as a positive control, in a dilution series starting at 1 μM. The assay was performed in duplicate.

Activated Protein C = Activated Protein C (Homo sapiens, UniProt P04070); assay: Serine protease inhibition assay: Activated Protein C; conditions: control compound, 10-dose 3-fold serial dilution starting at 10 μM or 100 uM
Sequence of Activated Protein C (P04070 212-461 limits assumed): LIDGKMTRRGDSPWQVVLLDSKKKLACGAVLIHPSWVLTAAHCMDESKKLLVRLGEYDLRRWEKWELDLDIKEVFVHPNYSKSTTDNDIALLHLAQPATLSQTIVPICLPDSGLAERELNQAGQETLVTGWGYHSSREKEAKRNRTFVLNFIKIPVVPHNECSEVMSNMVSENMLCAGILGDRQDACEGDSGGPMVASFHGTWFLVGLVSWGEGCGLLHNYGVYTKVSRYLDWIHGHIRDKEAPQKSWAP
Sequence of Activated Protein C (P04070 43-197 limits assumed): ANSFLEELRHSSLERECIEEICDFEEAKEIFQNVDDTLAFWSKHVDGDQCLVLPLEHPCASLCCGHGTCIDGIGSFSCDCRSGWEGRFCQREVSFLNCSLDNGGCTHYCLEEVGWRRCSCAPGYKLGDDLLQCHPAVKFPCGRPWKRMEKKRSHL
Description: (§1) Control compounds were tested in a 10-dose assay with 3-fold serial dilution starting at 10 μM or 100 uM (tPA, Matriptase 2, Kallikrein 5, Kallikrein 2, Kallikrein 1, Granzyme B, and APC). The protease activities were monitored as a time-course measurement of the increase in fluorescence signal from a fluorescently-labeled peptide substrate, and the initial linear portion of the signal slope (signal/min) was analyzed. % Enzyme activity for antibody titrations were calculated respective to vehicle controls in presence of PBS buffer as 100% Activity.
(§2) Empty cells indicate no inhibition or compound activity that could not be fit to an IC50 curve. The IC50 value higher than 1 μM was estimated based on the best curve fitting available.

Hepsin = Hepsin (Homo sapiens, UniProt P05981); assay: Serine protease inhibition assay: Hepsin; conditions: control compound, 10-dose 3-fold serial dilution starting at 10 μM or 100 uM
Sequence of Hepsin (P05981 whole entry): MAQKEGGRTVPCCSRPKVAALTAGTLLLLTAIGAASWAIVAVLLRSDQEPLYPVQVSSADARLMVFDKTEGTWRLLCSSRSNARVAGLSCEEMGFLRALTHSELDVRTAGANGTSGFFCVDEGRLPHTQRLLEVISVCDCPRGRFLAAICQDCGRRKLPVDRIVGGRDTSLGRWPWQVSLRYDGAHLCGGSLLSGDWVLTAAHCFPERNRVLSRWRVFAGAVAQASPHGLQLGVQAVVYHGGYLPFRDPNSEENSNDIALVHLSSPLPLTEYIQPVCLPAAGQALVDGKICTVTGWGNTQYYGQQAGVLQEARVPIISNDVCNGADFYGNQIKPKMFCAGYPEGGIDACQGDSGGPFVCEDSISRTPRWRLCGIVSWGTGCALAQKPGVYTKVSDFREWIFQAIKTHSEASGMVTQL
Description: as §1, §2

Kallikrein 2 = Kallikrein 2 (Homo sapiens, UniProt P20151); assay: Serine protease inhibition assay: Kallikrein 2; conditions: control compound, 10-dose 3-fold serial dilution starting at 10 μM or 100 uM
Sequence of Kallikrein 2 (P20151 25-261, species assumed): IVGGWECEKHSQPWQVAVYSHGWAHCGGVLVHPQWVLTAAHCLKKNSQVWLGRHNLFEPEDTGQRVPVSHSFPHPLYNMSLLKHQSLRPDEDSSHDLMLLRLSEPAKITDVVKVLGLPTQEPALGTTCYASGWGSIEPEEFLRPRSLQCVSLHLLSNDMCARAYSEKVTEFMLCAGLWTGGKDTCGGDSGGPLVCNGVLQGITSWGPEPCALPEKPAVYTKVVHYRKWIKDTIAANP
Description: as §1, §2

Kallikrein 5 = biological target: T1, Kallikrein 5 (Homo sapiens, UniProt Q9Y337); assay: Serine protease inhibition assay: Kallikrein 5; conditions: control compound, 10-dose 3-fold serial dilution starting at 10 μM or 100 uM
T1 sequence (Q9Y337 23-293): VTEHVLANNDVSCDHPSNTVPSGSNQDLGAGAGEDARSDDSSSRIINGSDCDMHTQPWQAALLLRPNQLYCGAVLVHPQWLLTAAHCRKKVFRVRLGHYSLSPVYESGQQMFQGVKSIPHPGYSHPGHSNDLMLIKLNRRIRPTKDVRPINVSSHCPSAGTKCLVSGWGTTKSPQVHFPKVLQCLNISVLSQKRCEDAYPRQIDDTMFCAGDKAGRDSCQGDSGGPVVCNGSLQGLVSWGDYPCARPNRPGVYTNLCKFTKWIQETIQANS
Description: as §1, §2

Kallikrein 12 = biological target: T2, Kallikrein 12 (Homo sapiens, UniProt Q9UKR0); assay: Serine protease inhibition assay: Kallikrein 12; conditions: control compound, 10-dose 3-fold serial dilution starting at 10 μM or 100 uM
T2 sequence (Q9UKR0 18-248): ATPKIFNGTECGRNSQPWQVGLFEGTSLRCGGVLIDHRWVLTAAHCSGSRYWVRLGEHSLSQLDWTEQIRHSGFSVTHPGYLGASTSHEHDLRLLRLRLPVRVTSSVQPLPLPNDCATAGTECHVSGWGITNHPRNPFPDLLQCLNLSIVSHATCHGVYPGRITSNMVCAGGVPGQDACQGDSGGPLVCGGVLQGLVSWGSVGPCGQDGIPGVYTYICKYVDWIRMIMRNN
Description: as §1, §2

Matriptase 2 = biological target: T3, Matriptase 2 (Homo sapiens, UniProt Q8IU80); assay: Serine protease inhibition assay: Matriptase 2; conditions: control compound, 10-dose 3-fold serial dilution starting at 10 μM or 100 uM
T3 sequence (Q8IU80 1-811): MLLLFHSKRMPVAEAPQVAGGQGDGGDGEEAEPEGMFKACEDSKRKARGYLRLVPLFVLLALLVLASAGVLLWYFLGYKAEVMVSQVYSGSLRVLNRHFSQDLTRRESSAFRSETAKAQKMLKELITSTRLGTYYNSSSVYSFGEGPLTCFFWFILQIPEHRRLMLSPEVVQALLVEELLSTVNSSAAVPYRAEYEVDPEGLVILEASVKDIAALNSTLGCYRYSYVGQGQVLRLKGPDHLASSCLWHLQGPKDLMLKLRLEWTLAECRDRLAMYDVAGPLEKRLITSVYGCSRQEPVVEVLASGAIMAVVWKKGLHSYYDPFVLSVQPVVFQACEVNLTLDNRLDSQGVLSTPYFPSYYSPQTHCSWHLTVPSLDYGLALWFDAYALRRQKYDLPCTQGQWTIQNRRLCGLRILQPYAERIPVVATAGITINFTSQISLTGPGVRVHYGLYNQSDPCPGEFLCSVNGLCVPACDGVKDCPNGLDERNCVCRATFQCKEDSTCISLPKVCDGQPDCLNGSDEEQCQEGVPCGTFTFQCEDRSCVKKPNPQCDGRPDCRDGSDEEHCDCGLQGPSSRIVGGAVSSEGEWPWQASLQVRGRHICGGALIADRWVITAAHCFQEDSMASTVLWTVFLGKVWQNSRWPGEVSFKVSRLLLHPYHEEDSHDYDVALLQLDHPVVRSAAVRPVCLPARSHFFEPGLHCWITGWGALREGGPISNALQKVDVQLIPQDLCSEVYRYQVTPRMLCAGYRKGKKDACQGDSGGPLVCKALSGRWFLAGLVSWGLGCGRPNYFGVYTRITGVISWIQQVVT
Description: as §1, §2

Plasmin = Plasmin (Homo sapiens, UniProt P00747); assay: Serine protease inhibition assay: Plasmin; conditions: control compound, 10-dose 3-fold serial dilution starting at 10 μM or 100 uM
Sequence of Plasmin (P00747 581-810 limits assumed, species assumed): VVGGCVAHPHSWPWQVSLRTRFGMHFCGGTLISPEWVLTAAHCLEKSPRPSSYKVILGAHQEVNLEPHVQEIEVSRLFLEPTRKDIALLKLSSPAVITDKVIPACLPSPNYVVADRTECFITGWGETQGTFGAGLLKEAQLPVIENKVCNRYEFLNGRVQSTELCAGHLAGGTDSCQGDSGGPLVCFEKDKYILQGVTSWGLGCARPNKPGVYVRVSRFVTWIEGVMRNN
Sequence of Plasmin (P00747 97-580 limits assumed, species assumed): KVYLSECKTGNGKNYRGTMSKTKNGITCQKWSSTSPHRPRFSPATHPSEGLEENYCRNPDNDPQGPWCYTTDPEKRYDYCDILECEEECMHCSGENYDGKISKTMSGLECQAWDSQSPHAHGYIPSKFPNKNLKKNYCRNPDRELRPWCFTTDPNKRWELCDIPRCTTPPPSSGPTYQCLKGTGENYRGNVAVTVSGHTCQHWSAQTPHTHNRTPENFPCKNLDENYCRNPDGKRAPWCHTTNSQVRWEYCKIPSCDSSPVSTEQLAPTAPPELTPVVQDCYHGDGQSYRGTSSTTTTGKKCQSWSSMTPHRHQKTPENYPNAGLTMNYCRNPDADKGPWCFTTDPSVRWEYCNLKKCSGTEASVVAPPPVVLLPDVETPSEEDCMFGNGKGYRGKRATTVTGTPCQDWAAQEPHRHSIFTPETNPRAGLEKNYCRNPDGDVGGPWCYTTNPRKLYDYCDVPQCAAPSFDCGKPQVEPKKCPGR
Description: as §1, §2

tPA = tPA (Homo sapiens, UniProt P00750); assay: Serine protease inhibition assay: tPA; conditions: control compound, 10-dose 3-fold serial dilution starting at 10 μM or 100 uM
Sequence of tPA (P00750 36-562, species assumed): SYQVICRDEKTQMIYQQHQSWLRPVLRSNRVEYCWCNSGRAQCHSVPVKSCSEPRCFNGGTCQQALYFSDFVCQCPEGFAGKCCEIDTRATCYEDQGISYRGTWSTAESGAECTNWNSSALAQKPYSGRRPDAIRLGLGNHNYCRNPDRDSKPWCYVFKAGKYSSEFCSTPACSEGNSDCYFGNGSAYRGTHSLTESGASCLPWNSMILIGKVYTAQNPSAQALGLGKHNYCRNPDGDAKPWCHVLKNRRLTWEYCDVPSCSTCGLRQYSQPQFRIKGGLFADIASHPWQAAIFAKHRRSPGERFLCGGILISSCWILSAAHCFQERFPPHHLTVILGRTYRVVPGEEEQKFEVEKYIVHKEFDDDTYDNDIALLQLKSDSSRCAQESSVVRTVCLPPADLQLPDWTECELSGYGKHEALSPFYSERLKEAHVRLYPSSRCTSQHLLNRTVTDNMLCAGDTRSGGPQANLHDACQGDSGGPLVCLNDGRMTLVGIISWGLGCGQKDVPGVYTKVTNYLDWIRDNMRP
Description: as §1, §2

Thrombin a = Thrombin a (Homo sapiens, UniProt P00734); assay: Serine protease inhibition assay: Thrombin a; conditions: control compound, 10-dose 3-fold serial dilution starting at 10 μM or 100 uM
Description: as §1, §2

Urokinase = Urokinase (Homo sapiens, UniProt P00749); assay: Serine protease inhibition assay: Urokinase; conditions: control compound, 10-dose 3-fold serial dilution starting at 10 μM or 100 uM
Description: as §1, §2

Cathepsin G = biological target: T4, Cathepsin G (Homo sapiens, UniProt P08311); assay: Serine protease inhibition assay: Cathepsin G; conditions: control compound, 10-dose 3-fold serial dilution starting at 10 μM or 100 uM
T4 sequence (P08311 21-244): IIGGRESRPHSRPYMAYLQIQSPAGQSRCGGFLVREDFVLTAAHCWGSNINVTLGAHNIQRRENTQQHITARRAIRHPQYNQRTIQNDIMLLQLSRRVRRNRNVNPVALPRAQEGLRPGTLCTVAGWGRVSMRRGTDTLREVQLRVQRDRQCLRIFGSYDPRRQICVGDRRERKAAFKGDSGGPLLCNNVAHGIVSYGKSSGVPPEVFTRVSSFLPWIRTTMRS
Description: as §1, §2

Granzyme B = Granzyme B (Homo sapiens, UniProt P10144); assay: Serine protease inhibition assay: Granzyme B; conditions: control compound, 10-dose 3-fold serial dilution starting at 10 μM or 100 uM
Sequence of Granzyme B (P10144 21-247, species assumed): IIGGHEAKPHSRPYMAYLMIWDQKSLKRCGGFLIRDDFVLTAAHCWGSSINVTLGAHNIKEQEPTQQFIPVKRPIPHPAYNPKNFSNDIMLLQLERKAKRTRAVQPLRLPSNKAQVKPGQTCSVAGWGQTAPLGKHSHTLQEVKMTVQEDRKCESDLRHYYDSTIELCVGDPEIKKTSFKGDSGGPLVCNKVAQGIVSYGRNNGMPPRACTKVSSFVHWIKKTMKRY
Description: as §1, §2

Factor XIIa = biological target: T5, Factor XIIa (Homo sapiens, UniProt P00748); assay: Serine protease inhibition assay: Factor XIIa; conditions: control compound, 10-dose 3-fold serial dilution starting at 10 μM or 100 uM
T5 sequence (P00748 373-615 limits assumed): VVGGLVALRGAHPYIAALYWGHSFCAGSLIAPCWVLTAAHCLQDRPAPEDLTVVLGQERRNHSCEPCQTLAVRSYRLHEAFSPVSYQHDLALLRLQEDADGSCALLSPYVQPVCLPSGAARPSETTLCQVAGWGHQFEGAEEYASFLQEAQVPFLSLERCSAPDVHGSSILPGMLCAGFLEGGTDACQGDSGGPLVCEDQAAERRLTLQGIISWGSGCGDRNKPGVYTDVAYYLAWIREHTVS
Description: as §1, §2

Factor VIIa = biological target: T6, Factor VIIa (Homo sapiens, UniProt P08709); assay: Serine protease inhibition assay: Factor VIIa; conditions: control compound, 10-dose 3-fold serial dilution starting at 10 μM or 100 uM
T6 sequence (P08709 213-466 limits assumed): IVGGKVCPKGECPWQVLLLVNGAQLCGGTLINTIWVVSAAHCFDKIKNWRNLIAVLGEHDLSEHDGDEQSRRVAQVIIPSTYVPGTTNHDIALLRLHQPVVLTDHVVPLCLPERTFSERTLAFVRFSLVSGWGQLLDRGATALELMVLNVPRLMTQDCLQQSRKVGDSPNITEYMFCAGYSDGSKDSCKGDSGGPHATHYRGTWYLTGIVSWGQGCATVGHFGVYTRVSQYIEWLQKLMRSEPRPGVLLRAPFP
T6 sequence (P08709 61-212 limits assumed): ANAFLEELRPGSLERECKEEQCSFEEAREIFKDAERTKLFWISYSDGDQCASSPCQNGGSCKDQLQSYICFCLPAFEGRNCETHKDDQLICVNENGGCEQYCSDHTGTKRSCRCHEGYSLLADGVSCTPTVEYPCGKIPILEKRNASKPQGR
Description: as §1, §2

Kallikrein 1 = Kallikrein 1 (Homo sapiens, UniProt P06870); assay: Serine protease inhibition assay: Kallikrein 1; conditions: control compound, 10-dose 3-fold serial dilution starting at 10 μM or 100 uM
Sequence of Kallikrein 1 (P06870 25-262, species assumed): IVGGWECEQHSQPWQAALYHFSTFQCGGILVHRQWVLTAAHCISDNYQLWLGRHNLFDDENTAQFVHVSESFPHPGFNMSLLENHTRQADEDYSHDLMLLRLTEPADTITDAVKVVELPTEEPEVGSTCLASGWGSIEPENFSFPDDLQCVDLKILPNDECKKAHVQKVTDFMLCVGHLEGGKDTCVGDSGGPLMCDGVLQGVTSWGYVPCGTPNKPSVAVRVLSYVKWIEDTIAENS
Description: as §1, §2

Gabexate mesylate [Gabexate mesylate (GM)]
IC50 (trypsin, human pancrease; read-out: Compound IC50 (M) Data 1): 2.13e-09 M
IC50 (trypsin, human pancrease; read-out: Compound IC50 (M) Data 2): 2.33e-09 M
IC50 (Activated Protein C): 64.8 nM
IC50 (Hepsin): 51 nM
IC50 (Kallikrein 2): 139 nM
IC50 (Kallikrein 5): 8730 nM
IC50 (Kallikrein 12): 32.5 nM
IC50 (Matriptase 2): 201 nM
IC50 (Plasmin): 253 nM
IC50 (tPA): 1060 nM
IC50 (Thrombin a): 837 nM
IC50 (Urokinase): 16.5 nM

CC(C)C[C@H](NC(=O)[C@@H](NC(=O)N[C@@H](Cc1ccccc1)C(=O)O)[C@@H]1CCN=C(N)N1)C(=O)N[C@H](C=O)Cc1ccccc1 [Chymostatin]
IC50 (Cathepsin G): 4090 nM

CC[C@H](C)[C@H](NC(C)=O)C(=O)N[C@@H](CCC(=O)O)C(=O)N[C@H](C(=O)N[C@H](C=O)CC(=O)O)[C@@H](C)O [IETD-CHO] (Ac-IETD-aldehyde; N-terminus assumed)
IC50 (Granzyme B): 178 nM

N=C(N)c1ccc2cc(OC(=O)c3ccc(N=C(N)N)cc3)ccc2c1 [Nafamostat mesylate]
IC50 (Factor XIIa): 23.2 nM

N=C(N)c1ccc2nc(-c3cc(CC(=O)N[C@@H](CC(=O)O)C(=O)O)cc(-c4cc(S(N)(=O)=O)ccc4O)c3O)[nH]c2c1 [PCI 27483]
IC50 (Factor VIIa): 141 nM

CC(=O)N[C@@H](CC(C)C)C(=O)N[C@@H](CC(C)C)C(=O)N[C@H](C=O)CCCNC(=N)N [Leupeptin]
IC50 (Kallikrein 1): 2990 nM
